First the molecules themselves.
B1: AA residues 1661–1972: 53Bp1 deletion mutant, deletion of residues 1–1660 of SEQ ID NO: 2, HA-tagged (protein)
chain: MGVLSGKRKLITSEEERSPAKRGRKSATVKPGAVGAGEFVSPCESGDNTGEPSALEEQRGPLPLNKTLFLGYAFLLTMATTSDKLASRSKLPDGPTGSSEEEEEFLEIPPFNKQYTESQLRAGAGYILEDFNEAQCNTAYQCLLIADQHCRTRKYFLCLASGIPCVSHVWVHDSCHANQLQNYRNYLLPAGYSLEEQRILDWQPRENPFQNLKVLLVSDQQQNFLELWSEILMTGGAASVKQHHSSAHNKDIALGVFDVVVTDPSCPASVLKCAEALQLPVVSQEWVIQCLIVGERIGFKQHPKYKHDYVSH
modifications: HA tag; human 53Bp1
B2: AA residues 1–34 and 1220–1711: 53Bp1 deletion mutant, deletion of residues 35–1219 and 1712–1972 of SEQ ID NO: 2, HA-tagged (protein)
chain: MDPTGSQLDSDFSQQDTPCLIIEDSQPESQVLEDQGEEEFDMPQPPHGHVLHRHMRTIREVRTLVTRVITDVYYVDGTEVERKVTEETEEPIVECQECETEVSPSQTGGSSGDLGDISSFSSKASSLHRTSSGTSLSAMHSSGSSGKGAGPLRGKTSGTEPADFALPSSRGGPGKLSPRKGVSQTGTPVCEEDGDAGLGIRQGGKAPVTPRGRGRRGRPPSRTTGTRETAVPGPLGIEDISPNLSPDDKSFSRVVPRVPDSTRRTDVGAGALRRSDSPEIPFQAAAGPSDGLDASSPGNSFVGLRVVAKWSSNGYFYSGKITRDVGAGKYKLLFDDGYECDVLGKDILLCDPIPLDTEVTALSEDEYFSAGVVKGHRKESGELYYSIEKEGQRKWYKRMAVILSLEQGNRLREQYGLGPYEAVTPLTKAADISLDNLVEGKRKRRSNVSSPATPTASSSSSTTPTRKITESPRASMGVLSGKRKLITSEEERSPAKRGRKSATVKPGAVGAGEFVSPCESGDNTGE
modifications: HA tag; human 53Bp1
B3: AA residues 1–34 and 1047–1711: 53Bp1 deletion mutant, deletion of residues 35–1046 and 1712–1972 of SEQ ID NO: 2, HA-tagged (protein)
chain: MDPTGSQLDSDFSQQDTPCLIIEDSQPESQVLEDEARSEDPPTTPIRGNLLHFPSSQGEEEKEKLEGDHTIRQSQQPMKPISPVKDPVSPASQKMVIQGPSSPQGEAMVTDVLEDQKEGRSTNKENPSKALIERPSQNNIGIQTMECSLRVPETVSAATQTIKNVCEQGTSTVDQNFGKQDATVQTERGSGEKPVSAPGDDTESLHSQGEEEFDMPQPPHGHVLHRHMRTIREVRTLVTRVITDVYYVDGTEVERKVTEETEEPIVECQECETEVSPSQTGGSSGDLGDISSFSSKASSLHRTSSGTSLSAMHSSGSSGKGAGPLRGKTSGTEPADFALPSSRGGPGKLSPRKGVSQTGTPVCEEDGDAGLGIRQGGKAPVTPRGRGRRGRPPSRTTGTRETAVPGPLGIEDISPNLSPDDKSFSRVVPRVPDSTRRTDVGAGALRRSDSPEIPFQAAAGPSDGLDASSPGNSFVGLRVVAKWSSNGYFYSGKITRDVGAGKYKLLFDDGYECDVLGKDILLCDPIPLDTEVTALSEDEYFSAGVVKGHRKESGELYYSIEKEGQRKWYKRMAVILSLEQGNRLREQYGLGPYEAVTPLTKAADISLDNLVEGKRKRRSNVSSPATPTASSSSSTTPTRKITESPRASMGVLSGKRKLITSEEERSPAKRGRKSATVKPGAVGAGEFVSPCESGDNTGE
modifications: HA tag; human 53Bp1
B4: AA residues 1–34 and 1047–1972: 53Bp1 deletion mutant, deletion of residues 35–1046 of SEQ ID NO: 2, HA-tagged (protein)
chain: MDPTGSQLDSDFSQQDTPCLIIEDSQPESQVLEDEARSEDPPTTPIRGNLLHFPSSQGEEEKEKLEGDHTIRQSQQPMKPISPVKDPVSPASQKMVIQGPSSPQGEAMVTDVLEDQKEGRSTNKENPSKALIERPSQNNIGIQTMECSLRVPETVSAATQTIKNVCEQGTSTVDQNFGKQDATVQTERGSGEKPVSAPGDDTESLHSQGEEEFDMPQPPHGHVLHRHMRTIREVRTLVTRVITDVYYVDGTEVERKVTEETEEPIVECQECETEVSPSQTGGSSGDLGDISSFSSKASSLHRTSSGTSLSAMHSSGSSGKGAGPLRGKTSGTEPADFALPSSRGGPGKLSPRKGVSQTGTPVCEEDGDAGLGIRQGGKAPVTPRGRGRRGRPPSRTTGTRETAVPGPLGIEDISPNLSPDDKSFSRVVPRVPDSTRRTDVGAGALRRSDSPEIPFQAAAGPSDGLDASSPGNSFVGLRVVAKWSSNGYFYSGKITRDVGAGKYKLLFDDGYECDVLGKDILLCDPIPLDTEVTALSEDEYFSAGVVKGHRKESGELYYSIEKEGQRKWYKRMAVILSLEQGNRLREQYGLGPYEAVTPLTKAADISLDNLVEGKRKRRSNVSSPATPTASSSSSTTPTRKITESPRASMGVLSGKRKLITSEEERSPAKRGRKSATVKPGAVGAGEFVSPCESGDNTGEPSALEEQRGPLPLNKTLFLGYAFLLTMATTSDKLASRSKLPDGPTGSSEEEEEFLEIPPFNKQYTESQLRAGAGYILEDFNEAQCNTAYQCLLIADQHCRTRKYFLCLASGIPCVSHVWVHDSCHANQLQNYRNYLLPAGYSLEEQRILDWQPRENPFQNLKVLLVSDQQQNFLELWSEILMTGGAASVKQHHSSAHNKDIALGVFDVVVTDPSCPASVLKCAEALQLPVVSQEWVIQCLIVGERIGFKQHPKYKHDYVSH
modifications: HA tag; human 53Bp1
B5: AA residues 1–34 and 1411–1711: 53Bp1 deletion mutant, deletion of residues 35–1410 and 1712–1972 of SEQ ID NO: 2, HA-tagged (protein)
chain: MDPTGSQLDSDFSQQDTPCLIIEDSQPESQVLEDTRETAVPGPLGIEDISPNLSPDDKSFSRVVPRVPDSTRRTDVGAGALRRSDSPEIPFQAAAGPSDGLDASSPGNSFVGLRVVAKWSSNGYFYSGKITRDVGAGKYKLLFDDGYECDVLGKDILLCDPIPLDTEVTALSEDEYFSAGVVKGHRKESGELYYSIEKEGQRKWYKRMAVILSLEQGNRLREQYGLGPYEAVTPLTKAADISLDNLVEGKRKRRSNVSSPATPTASSSSSTTPTRKITESPRASMGVLSGKRKLITSEEERSPAKRGRKSATVKPGAVGAGEFVSPCESGDNTGE
modifications: HA tag; human 53Bp1

Results on eleven molecules are retold here after patent US7217532B2, “Methods for detecting DNA damage and screening for cancer therapeutics” (The Wistar Institute of Anatomy and Biology, priority 2000, dated 2007).

In one experiment the test system is 53Bp1 foci in U2OS cells. The experiment in a line: Effect of wortmannin or caffeine on ionizing radiation-induced 53Bp1 foci, by immunofluorescent microscopy. The experiment is classed as cell-based, human. Particulars: 20 μM wortmannin, 1 Gy ionizing radiation, at 30 minutes.
On to `COC[C@H]1OC(=O)c2coc3c2[C@@]1(C)C1=C(C3=O)[C@@H]2CCC(=O)[C@@]2(C)C[C@H]1OC(C)=O` [wortmannin], for which the “reduction of percentage of cells containing 53Bp1 ionizing radiation-induced foci” value is ~50%.

The next experiment deals with ionizing radiation-induced foci in U2OS cells. The experiment in a line: Localization of HA-tagged 53Bp1 deletion mutants to ionizing radiation-induced foci in U2OS cells. The experiment is classed as cell-based, human. Particulars: HA-tagged proteins expressed in U2OS cells, immunofluorescence after ionizing radiation. From the text:
Stably transfected U2OS cell lines were created by transfecting the plasmid pSV2 [Chehab, N. H. et al, 1999 Proc. Natl. Acad. Sci., USA, 96:13777–13782] containing various N-terminal hemaglutinin (HA) tagged versions of 53Bp1. HA53Bp1 is the full-length protein bearing the HA tag on its N terminus. HA53Bp1ΔBRCT is similar to HA53Bp1 with amino acids 1713 to 1973 (the BRCT domains) of SEQ ID NO: 2 deleted therefrom. HA53Bp1C312 contains only the C-terminal 312 amino acids of 53Bp1, which include the nuclear localization signal (i.e., amino acids 1662 to 1701 of SEQ ID NO: 2 and the BRCT domain (amino acids 1702–1973 of SEQ ID NO: 2). The U2OS cells on cover slips were transiently transfected with the selected plasmid using the calcium phosphate method. Positively transfected colonies were pooled after selecting with neomycin. Expression was allowed to occur for 30 hours and then cells were treated, fixed, stained, and visualized as described below.
The following experiments were performed to identify the minimal focus-targeting (FT) domain of the relatively large (1972 amino acids) 53Bp1 protein [SEQ ID NO: 2]. The FT domain is the portion of the protein sequence required for targeting to ionizing radiation-induced foci. The FT domain participates in the mechanism of 53Bp1 relocalization. In addition, fragments of 53Bp1 that retain the ability to form ionizing radiation-induced foci act as dominant negative mutants by competing with endogenous 53Bp1 for localization to the IR-induced 53Bp1-binding sites.
A series of 53Bp1 deletion mutants was generated and expressed as HA-tagged proteins in U2OS cells. These cells were examined by immuno-fluorescence for their intracellular localization in response to ionizing radiation, as described in Examples 1 and 2. Nuclear localization is considered to be a prerequisite for targeting of 53Bp1 to ionizing radiation-induced foci. Therefore, all the mutants were constructed so that they retained the NLS of 53Bp1.
In the case of “full-length: full-length 53Bp1, AA residues 1–1972 of SEQ ID NO: 2, HA-tagged”, the “Ionizing Radiation-Induced Foci Localization” value is on record as “Yes”.

Regarding “AA residues 1–1053 and 1220–1972: 53Bp1 deletion mutant, deletion of residues 1054–1219 of SEQ ID NO: 2, HA-tagged”, the “Ionizing Radiation-Induced Foci Localization” value was “Yes”.

Turning to “AA residues 1–1711: 53Bp1 deletion mutant, deletion of AA residues 1712–1972 of SEQ ID NO: 2, HA-tagged”, the “Ionizing Radiation-Induced Foci Localization” value is given as “Yes”.

As to “AA residues 1–1053 and 1411–1972: 53Bp1 deletion mutant, deletion of residues 1054–1410 of SEQ ID NO: 2, HA-tagged”, the “Ionizing Radiation-Induced Foci Localization” value was “No”.

On to B1, for which the “Ionizing Radiation-Induced Foci Localization” value is “No”.

For B2, the “Ionizing Radiation-Induced Foci Localization” value is on record as “Yes”.

As to B3, the “Ionizing Radiation-Induced Foci Localization” value is recorded as “Yes”.

For B4, the “Ionizing Radiation-Induced Foci Localization” value was “Yes”.

For B5, the “Ionizing Radiation-Induced Foci Localization” value is reported as “No”.

For another experiment, the system named is 53Bp1 foci in U2OS cells. In words: 53Bp1 foci formation in cells treated with DNA damaging agents, by immunofluorescence. The settings on record: 0.2 mM etoposide; 1 mM hydroxyurea for 1 to 25 hours.
In the case of `NC(=O)NO` [HU, hydroxyurea], the “53Bp1-containing foci formation in treated cells” value is listed as “do not form”.
